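Briefly, cells in 96-well plates were exposed to five compound concentrations for 48 h, and endpoints were estimated by linear interpolation. Abbreviation: GI50, concentration required for 50% inhibition of growth.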 The source made the active and inactive calls. No stated cut-off is given here; in the data, active = GI50 up to about 1.1 µM and inactive = higher.
Experiments:
Assay in all cases: inhibition of tumour cell growth, NCI panel, 48 h
[1] = system: SK-MEL-2
[2] = system: T47D
[3] = system: MDA-MB-435
[4] = system: PC-3
[5] = system: SR
[6] = system: SF-295
[7] = system: OVCAR-5
[8] = system: SN12C
[9] = system: SF-539
[10] = system: OVCAR-8
[11] = system: MOLT-4
[12] = system: IGROV-1
[13] = system: HCT-15
[14] = system: HL-60
[15] = system: NCI-H226
[16] = system: Malme-3M
[17] = system: SW-620
[18] = system: SNB-75
[19] = system: UO-31
[20] = system: DU-145

SMILES | GI50 [1] | GI50 [2] | GI50 [3] | GI50 [4] | GI50 [5] | GI50 [6] | GI50 [7] | GI50 [8] | GI50 [9] | GI50 [10] | GI50 [11] | GI50 [12] | GI50 [13] | GI50 [14] | GI50 [15] | GI50 [16] | GI50 [17] | GI50 [18] | GI50 [19] | GI50 [20]
CC(C)=NNc1ncnc2[nH]cnc12 | 3.82 µM (inactive) | 11.2 µM (inactive) | 6.87 µM (inactive) | 9.04 µM (inactive) | 4.69 µM (inactive) | 8.55 µM (inactive) | 4.65 µM (inactive) | 14.5 µM (inactive) | 36.4 µM (inactive) | 5.55 µM (inactive) | 9.06 µM (inactive) | 7.82 µM (inactive) | 6.01 µM | 3.71 µM (inactive) | 12 µM (inactive) | 49.7 µM (inactive) | 11.9 µM (inactive) | 18.2 µM (inactive) | 3.21 µM (inactive) | 3.85 µM (inactive)
CN(O)C(=S)c1ccccc1 | 5.07 µM (inactive) | 16.4 µM (inactive) | 3.38 µM (inactive) | 3.23 µM (inactive) | 0.178 µM (active) | 3.48 µM (inactive) | 78.5 µM (inactive) | 5.18 µM (inactive) | 9.59 µM (inactive) | 2.47 µM (inactive) | 0.325 µM (active) | 3.52 µM (inactive) | 2.47 µM | 0.233 µM (active) | 34.2 µM (inactive) | 7.82 µM (inactive) | 1.25 µM (inactive) | 4.31 µM (inactive) | 5.35 µM (inactive) | 41.2 µM (inactive)
Oc1ccc2c(c1)-c1c(c3ccccc3n1CCN1CCOCC1)CC2 | 25 µM (inactive) | 84.7 µM (inactive) | 30.9 µM (inactive) | 32.2 µM (inactive) | > 100 µM (inactive) | 48.3 µM (inactive) | 23.9 µM (inactive) | > 100 µM (inactive) | 46 µM (inactive) | 33.2 µM (inactive) | > 100 µM (inactive) | 15.3 µM (inactive) | 39.7 µM | > 100 µM (inactive) | 24.6 µM (inactive) | 31.3 µM (inactive) | > 10 µM (inactive) | 27 µM (inactive) | 33.9 µM (inactive) | 46 µM (inactive)
O=S1(=O)c2ccccc2NC(=S)N1c1ccccc1 | 73.5 µM (inactive) | 69.5 µM (inactive) | 50.1 µM (inactive) | 58.3 µM (inactive) | 44.8 µM (inactive) | 3.49 µM (inactive) | 92.9 µM (inactive) | 62.2 µM (inactive) | > 100 µM (inactive) | 34.6 µM (inactive) | 29.5 µM (inactive) | 2.45 µM (inactive) | 75 µM | 32 µM (inactive) | 43.9 µM (inactive) | 46.1 µM (inactive) | > 100 µM (inactive) | 2.61 µM (inactive) | 36.7 µM (inactive) | 87.1 µM (inactive)
C=C1CCCC(C)(C)C1CCC1(C)CCC(C(C)C(=O)OC)OO1 (stereo not given) | 10.8 µM (inactive) | 4.32 µM (inactive) | 4.05 µM (inactive) | 3.74 µM (inactive) | 3.02 µM (inactive) | 4.48 µM (inactive) | 6.75 µM (inactive) | 3.77 µM (inactive) | 6.3 µM (inactive) | 6.62 µM (inactive) | 8.11 µM (inactive) | 0.63 µM (active) | 15.5 µM | 2.21 µM (inactive) | 6.18 µM (inactive) | > 22.9 µM (inactive) | 7.6 µM (inactive) | 3.15 µM (inactive) | 0.748 µM (active) | 4.35 µM (inactive)
CC(C)(C)N(Cc1ccccc1)C(=O)/C=C\[S+]([O-])c1ccccc1 (stereo not given) | 2.8 µM (inactive) | 4.2 µM (inactive) | 2.65 µM (inactive) | 3.56 µM (inactive) | 1.58 µM (inactive) | 13.4 µM (inactive) | 13.6 µM (inactive) | 2.61 µM (inactive) | 3.94 µM (inactive) | 1.84 µM (inactive) | 2.03 µM (inactive) | 4.79 µM (inactive) | 3.75 µM | 2.1 µM (inactive) | 5.07 µM (inactive) | 1.69 µM (inactive) | 2.15 µM (inactive) | 10.9 µM (inactive) | 2.34 µM (inactive) | 3.85 µM (inactive)
O=C1C=CC(=O)[C@H]2C3C=CC(C4C3C3(Cl)C(Cl)=C(Cl)[C@]4(Cl)C3(Cl)Cl)[C@@H]12 (stereo not given in full) | 7.76 µM (inactive) | 5.48 µM (inactive) | 2.51 µM (inactive) | 4.94 µM (inactive) | 1.66 µM (inactive) | 12.5 µM (inactive) | 7.46 µM (inactive) | 5.58 µM (inactive) | 5.28 µM (inactive) | 8.47 µM (inactive) | 3.75 µM (inactive) | 5.79 µM (inactive) | 4.11 µM | 1.57 µM (inactive) | 6.47 µM (inactive) | 10.6 µM (inactive) | 9.57 µM (inactive) | 12.2 µM (inactive) | 10.3 µM (inactive) | 8.97 µM (inactive)
Cc1cn([C@H]2C[C@@H]3[C@@H](COC(CCl)N3O)O2)c(=O)[nH]c1=O (stereo not given in full) | > 100 µM (inactive) | > 100 µM (inactive) | > 100 µM (inactive) | > 100 µM (inactive) | > 100 µM (inactive) | > 100 µM (inactive) | > 100 µM (inactive) | > 100 µM (inactive) | > 100 µM (inactive) | > 100 µM (inactive) | > 100 µM (inactive) | > 100 µM (inactive) | > 100 µM | > 100 µM (inactive) | > 100 µM (inactive) | 41.3 µM (inactive) | > 100 µM (inactive) | 87.9 µM (inactive) | > 100 µM (inactive) | > 100 µM (inactive)
O=C1Nc2ccc(Br)cc2/C1=C/C(=O)c1ccccc1 | 16 µM (inactive) | 14.7 µM (inactive) | 16.2 µM (inactive) | 9.38 µM (inactive) | 4.37 µM (inactive) | 17.8 µM (inactive) | 22.5 µM (inactive) | 4.2 µM (inactive) | 6.08 µM (inactive) | 2.1 µM (inactive) | 2.64 µM (inactive) | 3.67 µM (inactive) | 2.49 µM | 2.83 µM (inactive) | 13.9 µM (inactive) | 6.37 µM (inactive) | 2.25 µM (inactive) | 17.3 µM (inactive) | 2.49 µM (inactive) | 10.2 µM (inactive)
CC(=O)Nc1ccc(/C=C/[N+](=O)[O-])cc1 | 9.66 µM (inactive) | 4.1 µM (inactive) | 2.82 µM (inactive) | 5.71 µM (inactive) | 0.404 µM (active) | 5.71 µM (inactive) | 2.58 µM (inactive) | 3.37 µM (inactive) | 2.37 µM (inactive) | 6.07 µM (inactive) | 1.96 µM (inactive) | 2.37 µM (inactive) | 2.33 µM | 2.84 µM (inactive) | 1.67 µM (inactive) | 3.29 µM (inactive) | 2.64 µM (inactive) | 1.5 µM (inactive) | 2 µM (inactive) | 5.11 µM (inactive)
CN(C)CCNC(=O)c1cccc2nc3c(nc12)-c1ccccc1C3=O | 17 µM (inactive) | 12.9 µM (inactive) | 14.8 µM (inactive) | 17.6 µM (inactive) | 1.14 µM (inactive) | 17.9 µM (inactive) | 24.8 µM (inactive) | 11 µM (inactive) | 10.2 µM (inactive) | 16.4 µM (inactive) | 0.721 µM (active) | 20.9 µM (inactive) | 10.3 µM | 6.3 µM (inactive) | 14.4 µM (inactive) | 9.95 µM (inactive) | 6.43 µM (inactive) | 13.8 µM (inactive) | 12.1 µM (inactive) | 29.9 µM (inactive)
O=C(O)c1cc(N(Cc2ccccc2O)Cc2cc(O)ccc2O)ccc1O [LAVENDUSTIN A] | > 100 µM (inactive) | > 100 µM (inactive) | > 100 µM (inactive) | 42.3 µM (inactive) | 82.8 µM (inactive) | > 100 µM (inactive) | > 100 µM (inactive) | > 100 µM (inactive) | > 100 µM (inactive) | > 100 µM (inactive) | > 100 µM (inactive) | > 100 µM (inactive) | > 100 µM | > 100 µM (inactive) | > 100 µM (inactive) | > 100 µM (inactive) | > 100 µM (inactive) | > 10 µM (inactive) | > 100 µM (inactive) | > 100 µM (inactive)
